Measurements: publication PMC6579470, “A low-potential terminal oxidase associated with the iron-only nitrogenase from the nitrogen-fixing bacterium Azotobacter vinelandii” (The Journal of Biological Chemistry, 2019)

Columns and labels:
Anf3 = biological target: T1, Anf3 (Azotobacter vinelandii, UniProt C1DK98); assay: X-ray crystal structure of the complex; type: binding; conditions: protein isolated with bound FAD; FAD stacks on heme; crystals at 16 °C, 25.5% PEG 4000, 170 mM ammonium sulfate
T1 construct: gene Avin_49040; full-length anf3, N-terminal His6 tag cut off with thrombin; E. coli KRX; intertwined homodimer; cofactors contact both monomers

[1] = biological target: Anf3 from Azotobacter vinelandii (Azotobacter vinelandii); assay: crystal structure; hanging-drop vapor diffusion, 25.5% PEG 4000, 170 mM ammonium sulfate, 16 °C; space group P2(1); the asymmetric unit contains a dimer

T1 sequence (C1DK98 entry or part of it): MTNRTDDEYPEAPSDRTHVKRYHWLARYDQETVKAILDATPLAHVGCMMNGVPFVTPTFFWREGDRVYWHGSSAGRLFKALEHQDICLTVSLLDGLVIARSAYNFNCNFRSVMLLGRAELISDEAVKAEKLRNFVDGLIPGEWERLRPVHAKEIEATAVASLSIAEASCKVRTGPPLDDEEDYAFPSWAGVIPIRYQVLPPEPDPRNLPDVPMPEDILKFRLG

## Cc1cc2nc3c(=O)[nH]c(=O)nc-3n(C[C@H](O)[C@H](O)[C@H](O)COP(=O)(O)OP(=O)(O)OC[C@H]3O[C@@H](n4cnc5c(N)ncnc54)[C@H](O)[C@@H]3O)c2cc1C [FAD]
Anf3
  X-ray crystal structure of the complex: Each monomer core is a split-barrel flavin-binding domain that binds an FAD

## Anf3 from Azotobacter vinelandii (enzyme)
[1]
  stoichiometry N: 2
